Reference: patent US20240166612A1, “ARYLTHIOETHER ACETAMIDE AND RELATED COMPOUNDS AND THEIR USE IN TREATING MEDICAL CONDITIONS” (X-Biotix Therapeutics, Inc., priority 2021, published 2024)
Converted amounts (≈) assume the structure as drawn.

What was measured:
[1] = biological target: T1, recombinant LpxA enzyme (P. aeruginosa) (Pseudomonas aeruginosa, UniProt Q9X6P4); assay: LpxA in vitro substrate acylation assay with RapidFire MS analysis (P. aeruginosa); type: biochemical; settings: P. aeruginosa enzyme 0.5 nM, PaACP-C10, 30 min
T1 sequence (Q9X6P4 1-258): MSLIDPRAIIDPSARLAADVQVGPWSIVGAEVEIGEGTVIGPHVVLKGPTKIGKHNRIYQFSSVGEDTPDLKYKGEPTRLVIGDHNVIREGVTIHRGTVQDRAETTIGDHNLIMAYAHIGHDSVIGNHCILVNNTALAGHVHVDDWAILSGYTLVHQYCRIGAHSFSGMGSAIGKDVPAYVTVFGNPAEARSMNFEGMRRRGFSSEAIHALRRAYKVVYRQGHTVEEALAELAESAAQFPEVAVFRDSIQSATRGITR
Protocol: Exemplary compounds from the above Examples were tested for ability to inhibit LpxA activity using an in vitro substrate acylation assay with RapidFire™ MS analysis. Assay procedures and results are described below.
Reactions were carried out in a final volume of 30 μL with 25 mM HEPES (pH 7.3), 150 mM NaCl, 2 mM DTT, 0.01% BSA, 5 μM UDP-GlcNac, recombinant LpxA enzyme (0.5 nM P. aeruginosa or 1.0 nM E. coli, both produced at Evotec), 0.5 μM acyl-transfer reagent (decanoyl P. aeruginosa acyl-carrier protein [PaACP-C10] or myristoyl E. coli acyl-carrier protein [EcACP-C1-4], both produced at Evotec), and 1% DMSO containing test compound. After 30 min incubation at room temperature, reactions were stopped by addition of 30 μL of 10% TCA in water.
Samples were centrifuged (4350 rpm, 4° C., 5 min), and then subjected to RapidFire™ MS analysis on an Agilent RapidFire 300 coupled to an Agilent 6460 triple-quadrupole mass spectrometer. Analytes were retained on a C4 (type A) cartridge using the following solvents and flow rates: • Pump 1—H2O with 5 mM NH4OAc at 2.0 mL/min, • Pump 2—MeOH/H2O (90/10) at 1.5 mL/min, • Pump 3—MeOH/H2O (90/10) at 0.5 mL/min, and • Pump 4—ACN (organic)/H2O (aqueous). Substrate and product of the reaction were detected in negative mode ESI-MS/MS by MRM (multiple reaction monitoring) of transitions 606.0/385.0 (UDP-GlcNAc substrate) and 776.2/385.0 (UDP-3-O—(R-3-hydroxydecanoyl)-GlcNAc product, for P. aeruginosa LpxA assay) or 832.2/385.0 (UDP-3-O—(R-3-hydroxymyristoyl)-GlcNAc product, for E. coli LpxA assay).
For IC50 determinations, peak areas of the substrate and product were compared to compute the proportion of product formed by the LpxA enzyme at each compound concentration.

[2] = test system: Wild-type P. aeruginosa PAO1; assay: Broth microdilution MIC, wild-type P. aeruginosa PAO1; type: cell-based; settings: Pseudomonas aeruginosa; wild-type P. aeruginosa PAO1, 37° C., 18 h; read-out: PAO1 WT MIC
[3] = test system: P. aeruginosa PAO1 ΔmexABoprM; assay: Broth microdilution MIC, P. aeruginosa PAO1 ΔmexABoprM; type: cell-based; settings: Pseudomonas aeruginosa, PAO1, 18 h, read-out: PAO1 KO MIC
Protocol: Exemplary compounds from the above Examples were tested to determine their minimum inhibitory concentration (MIC) for exemplary strains of Escherichia and Pseudomonas bacteria using broth microdilution methods. Assay procedures and results are described below.
Broth microdilution assays were conducted according to Clinical and Laboratory Standards Institute guidelines (CLSI, M07-A^11: Clinical and Laboratory Standards Institute. Methods for Dilution Antimicrobial Susceptibility Tests for Bacteria that Grow Aerobically; Approved Standard-11th Edition. Wayne, PA: CLSI, 2018). Briefly, bacterial suspensions were adjusted to a density equivalent to a 0.5 McFarland standard and diluted in sterile, cation-adjusted Mueller-Hinton broth (Beckton Dickinson) to yield a final inoculum between 2×10^5 and 8×10^5 colony-forming units (CFU)/mL. An inoculum volume of 98 μL was added to wells containing 2 μL of 2-fold serial dilutions of drug (prepared in DMSO). All inoculated microdilution trays were incubated in ambient air at 37° C. for 18 h. […] Performance of the assay was monitored by the use of laboratory quality-control strains (S. aureus ATCC 29213 and P. aeruginosa ATCC 27853) and levofloxacin, a compound with a defined MIC spectrum, in accordance with CLSI guidelines (CLSI, M100Ed29: Clinical and Laboratory Standards Institute. Performance Standards for Antimicrobial Susceptibility Testing, 29th Edition. Wayne, PA: CLSI, 2018).
Multiple enterobacteriaceae strains were tested, including both wild-type strains and multi-drug resistance pump deficient mutants. Specific strains tested included the following: • Wild-type P. aeruginosa PAO1, • P. aeruginosa PAO1 ΔmexABoprM—Disabled multi-drug efflux system Δ(MexAB-OprM), • P. aeruginosa PAO397—PAO1Δ(mexAB-oprM) Δ(mexCD-oprJ) Δ(mexEF-oprN) Δ(mexJK) Δ(mexXY) ΔopmH, • P. aeruginosa LESB58—Clinical isolate; colistin-resistant, isolated in the United Kingdom in 1988 from a patient with cystic fibrosis • E. coli JW0452-3 (BW25113 JacrA::kan)—Disabled multi-drug efflux system (AcrAB-TolC).
Experimental results are provided in Table 11, which provides MIC values for wild-type P. aeruginosa PAO1 (“PAO1 WT MIC”), P. aeruginosa PAO ΔmexABoprM (“PAO1 KO MIC”), P. aeruginosa PAO397 (“PAO397 KO MIC”), P. aeruginosa LESB58 (“LESB58”), and E. coli JW0452-3 (BW25113 JacrA::kan) (“E. coli KO MIC”).

P. aeruginosa PAO397 = assay: Broth microdilution MIC, P. aeruginosa PAO397; type: cell-based; settings: Pseudomonas aeruginosa, PAO397, 18 h, read-out: PAO397 KO MIC
P. aeruginosa LESB58 = assay: Broth microdilution MIC, P. aeruginosa LESB58; type: cell-based; settings: Pseudomonas aeruginosa; P. aeruginosa LESB58 clinical isolate, colistin-resistant, 37° C., 18 h

Structure (SMILES) | IC50 [1] | MIC [2] | MIC [3] | MIC (P. aeruginosa PAO397) | MIC (P. aeruginosa LESB58)
CCc1ccccc1OCC(=O)N(Cc1ccc(C#N)nc1)Cc1nnc(N)o1 [compound 19] | 20 to 100 nM | > 64 µg/mL | 1 to 16 µg/mL (≈ 2.55 to 40.8 µM) | < 1 µg/mL | 16 to 64 µg/mL (≈ 40.8 to 163 µM)
Nc1nnc(CN(Cc2ccc(S(N)(=O)=O)cc2F)C(=O)CSc2cc(F)ccc2Cl)o1 [compound 24] | 20 to 100 nM | > 64 µg/mL | 1 to 16 µg/mL (≈ 1.98 to 31.7 µM) | < 1 µg/mL | 16 to 64 µg/mL (≈ 31.7 to 127 µM)
Cc1noc(CN(Cc2ccc(C#N)cc2)C(=O)CSc2ccccc2Cl)n1 [Compound No. 68, 2-(2-Chlorophenyl)sulfanyl-N-[(4-cyanophenyl)methyl]-N-[(3-methyl-1,2,4-oxadiazol-5-yl)methyl]acetamide] | 20 to 100 nM | > 64 µg/mL | 16 to 64 µg/mL (≈ 38.8 to 155 µM) | 1 to 16 µg/mL (≈ 2.42 to 38.8 µM) | 
N#Cc1ccc(CN(Cc2nnc(N)o2)C(=O)CSc2cccc(F)c2Cl)c(F)c1 [Compound No. 28, N-[(5-Amino-1,3,4-oxadiazol-2-yl)methyl]-2-(2-chloro-3-fluoro-phenyl)sulfanyl-N-[(4-cyano-2-fluoro-phenyl)methyl]acetamide] | < 20 nM | 16 to 64 µg/mL (≈ 35.6 to 142 µM) | 1 to 16 µg/mL (≈ 2.22 to 35.6 µM) | < 1 µg/mL | 
Cc1ccccc1SCC(=O)N(Cc1ccc(C#N)nc1)Cc1nnc(N)o1 [compound 15] | 100 to 1000 nM | > 64 µg/mL | 1 to 16 µg/mL (≈ 2.54 to 40.6 µM) | 1 to 16 µg/mL (≈ 2.54 to 40.6 µM) | 
Cc1cc(C#N)ccc1CN(Cc1nnc(N)o1)C(=O)CSc1ccccc1Cl [compound 48] | 20 to 100 nM | > 64 µg/mL | 16 to 64 µg/mL (≈ 37.4 to 150 µM) | < 1 µg/mL | 
N#Cc1ccc(CN(Cc2nnc(N)o2)C(=O)CSc2ncccc2Cl)c(F)c1 [compound 58] | 20 to 100 nM | > 64 µg/mL | 1 to 16 µg/mL (≈ 2.31 to 37 µM) | < 1 µg/mL | > 64 µg/mL
N#Cc1ccc(CN(Cc2nnc(N)o2)C(=O)CSc2cc(F)ccc2Cl)c(F)c1 [compound 30] | < 20 nM | 16 to 64 µg/mL (≈ 35.6 to 142 µM) | 1 to 16 µg/mL (≈ 2.22 to 35.6 µM) | < 1 µg/mL | 
Cc1nnc(CN(Cc2ccc(C#N)cc2)C(=O)CSc2ccccc2Cl)[nH]1 [compound 74] | 100 to 1000 nM | > 64 µg/mL | 16 to 64 µg/mL (≈ 38.8 to 155 µM) | 1 to 16 µg/mL (≈ 2.43 to 38.8 µM) | 
N#Cc1ccc(CN(Cc2nnc(N)o2)C(=O)CSc2cc(F)cc(F)c2Cl)cn1 [Compound No. 21, N-[(5-Amino-1,3,4-oxadiazol-2-yl)methyl]-2-(2-chloro-3,5-difluoro-phenyl)sulfanyl-N-[(6-cyano-3-pyridyl)methyl]acetamide] | < 20 nM | 16 to 64 µg/mL (≈ 35.5 to 142 µM) | 1 to 16 µg/mL (≈ 2.22 to 35.5 µM) | < 1 µg/mL | 16 to 64 µg/mL (≈ 35.5 to 142 µM)
CCc1ccccc1SCC(=O)N(Cc1ccc(C#N)cc1)Cc1nnc(N)[nH]1 [Compound No. 70, N-[(5-Amino-4H-1,2,4-triazol-3-yl)methyl]-N-[(4-cyanophenyl)methyl]-2-(2-ethylphenyl)sulfanyl-acetamide] | 20 to 100 nM | > 64 µg/mL | 1 to 16 µg/mL (≈ 2.46 to 39.4 µM) | < 1 µg/mL | 
N#Cc1ccc(CN(Cc2nnc(N)o2)C(=O)CSc2cccc(Cl)c2Cl)c(F)c1 [compound 57] | 20 to 100 nM | > 64 µg/mL | 1 to 16 µg/mL (≈ 2.14 to 34.3 µM) | < 1 µg/mL | 16 to 64 µg/mL (≈ 34.3 to 137 µM)
N#Cc1ccc(CN(Cc2nnc(N)o2)C(=O)CSc2cc(OCCN)ccc2Cl)c(F)c1 [Compound No. 60, 2-[5-(2-Aminoethoxy)-2-chloro-phenyl]sulfanyl-N-[(5-amino-1,3,4-oxadiazol-2-yl)methyl]-N-[(4-cyano-2-fluoro-phenyl)methyl]acetamide] | 100 to 1000 nM | > 64 µg/mL | 1 to 16 µg/mL (≈ 2.04 to 32.6 µM) | < 1 µg/mL | 
N#Cc1ccc(CN(Cc2nnc(N)o2)C(=O)COc2ccccc2Br)cc1 [compound 35] | 20 to 100 nM | > 64 µg/mL | 1 to 16 µg/mL (≈ 2.26 to 36.2 µM) | < 1 µg/mL | 
CCc1ccccc1SCC(=O)N(Cc1ccc(C#N)nc1)Cc1nnc(N)o1 [Compound No. 7, N-[(5-Amino-1,3,4-oxadiazol-2-yl)methyl]-N-[(6-cyano-3-pyridyl)methyl]-2-(2-ethylphenyl)sulfanyl-acetamide] | < 20 nM | > 64 µg/mL | 1 to 16 µg/mL (≈ 2.45 to 39.2 µM) | < 1 µg/mL | 16 to 64 µg/mL (≈ 39.2 to 157 µM)
N#Cc1ccc(CN(Cc2nnc(N)o2)C(=O)CSc2cc(F)ccc2Cl)cc1 [compound 51] | < 20 nM | > 64 µg/mL | 1 to 16 µg/mL (≈ 2.32 to 37 µM) | < 1 µg/mL | 1 to 16 µg/mL (≈ 2.32 to 37 µM)
N#Cc1ccc(CN(Cc2nnc(N)o2)C(=O)COc2ccccc2C(F)(F)F)cc1 [compound 33] | 20 to 100 nM | > 64 µg/mL | 16 to 64 µg/mL (≈ 37.1 to 148 µM) | < 1 µg/mL | 
N#Cc1ccc(CN(Cc2nnc(N)o2)C(=O)CSc2cc(CO)ccc2Cl)cc1 [compound 45] | 20 to 100 nM | > 64 µg/mL | 1 to 16 µg/mL (≈ 2.25 to 36 µM) | < 1 µg/mL | 
C[C@@H](Oc1ccccc1Cl)C(=O)N(Cc1ccc(C#N)cc1)Cc1nnc(N)o1 [compound 36] | 100 to 1000 nM | > 64 µg/mL | 16 to 64 µg/mL (≈ 38.8 to 155 µM) | < 1 µg/mL | > 64 µg/mL
